According to paper PMC9848351, “Discovery of new pyridine-quinoline hybrids as competitive and non-competitive PIM-1 kinase inhibitors with apoptosis induction and caspase 3/7 activation capabilities” (Journal of Enzyme Inhibition and Medicinal Chemistry, 2023):

Assays:
[1] = system: Colon cancer cells (Caco-2); test: MTT anticancer activity, Caco-2; assay type: cell-based, human
Outline: (§1)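 Cells seeded at 5x10^3/well (Caco-2 in DMEM, others in RPMI-1640, 10% FBS) and exposed to serial compound concentrations for 72 h at 37 °C, 5% CO2, starting 24 h after seeding. MTT (3 h, 37 °C) read at 570 nm after DMSO solubilisation; IC50 calculated from viability.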

HepG-2 = test: Flow cytometric annexin V/PI analysis of apoptosis, HepG-2; assay type: cell-based, human; details: IC50 of compound, 72 h, mean ± SEM
PC-3 = test: Flow cytometric annexin V/PI analysis of apoptosis, PC-3; assay type: cell-based, human; details: IC50 of compound, 72 h, mean ± SEM
Method: (§2) The apoptosis-dependent […] was determined by quantification of annexin-stained apoptotic cells using the FITC signal detector (FL1) against the phycoerythrin emission signal detector (FL2) (Supplementary Page S55). […]
(§3) MTT method was used for assaying cell viability 25. Twenty microliters of 5 mg/ml MTT (Sigma, USA) was added to each well and the plate was incubated at […]
(§4) 37 °C for 3 h. […]
(§5) Graphpad Instat software.
(§6) Determination of the anticancer activity
(§7) Anticancer effect of the above-mentioned compounds was evaluated using four human cancer cell lines. Colon cancer cells (Caco-2) were maintained in DMEM (Lonza, USA) containing 10% FBS while myeloid leukemia cell line (NFS-60), liver cancer cell line (HepG-2) and prostate cancer cell line (PC-3) were cultured in RPMI-1640 (Lonza, USA) supplemented with 10% FBS. All cancer cells (5x10^3 cells/well) were seeded in sterile 96-well plates. After 24h, serial concentrations of the tested compounds and Dox were incubated with four cancer cell lines for 72 h at 37 °C in 5% CO2 incubator. MTT method was done as described above. The Graphpad Instat software was used for calculating the half maximal inhibitory concentration (IC50) values. […]
(§8) Flow cytometric analysis of apoptosis
(§9) Caco-2, PC-3 and NFS-60 cell lines. After trypsinization, the untreated and treated cells were incubated with annexin V/PI for 15 min. Then cells were fixed and incubated with streptavidin-fluorescein (5 µg/mL) for 15 min. The apoptosis-dependent anticancer effect was determined by quantification of annexin-stained apoptotic cells using the FITC signal detector (FL1) against the phycoerythrin emission signal detector (FL2). […]

[2] = system: prostate cancer cell line (PC-3); test: MTT anticancer activity, PC-3; assay type: cell-based, human; details: Homo sapiens, 72 h, PC-3, 72 h, mean ± SEM
Outline: as §1

PIM-1 kinase [3] = target: T1, PIM-1 kinase (Homo sapiens, UniProt P11309); test: Mechanism of PIM-1 kinase inhibition, Lineweaver–Burk double-reciprocal plot; assay type: biochemical; parameters: purchased Promega Corporation #V4032
T1 sequence (P11309 whole entry): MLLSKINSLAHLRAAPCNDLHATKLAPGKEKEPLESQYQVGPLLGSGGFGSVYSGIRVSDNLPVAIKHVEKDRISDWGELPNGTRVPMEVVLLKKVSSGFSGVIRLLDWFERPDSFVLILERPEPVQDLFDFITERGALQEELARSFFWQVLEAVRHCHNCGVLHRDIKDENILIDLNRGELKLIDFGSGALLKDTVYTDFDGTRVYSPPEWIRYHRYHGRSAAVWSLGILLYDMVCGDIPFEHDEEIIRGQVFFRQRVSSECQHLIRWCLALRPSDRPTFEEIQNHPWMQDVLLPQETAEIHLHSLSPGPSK

[4] = system: liver cancer cell line (HepG-2); test: MTT anticancer activity, HepG-2; assay type: cell-based, human; details: Homo sapiens, HepG2; HepG-2, 72 h, MTT; mean ± SEM
Outline: as §1

PIM-2 kinase = PIM-2 kinase (Homo sapiens, UniProt Q9P1W9); test: PIM-2 kinase inhibitory activity (Promega kinase assay kit)
PIM-2 kinase, sequence (Q9P1W9 whole entry): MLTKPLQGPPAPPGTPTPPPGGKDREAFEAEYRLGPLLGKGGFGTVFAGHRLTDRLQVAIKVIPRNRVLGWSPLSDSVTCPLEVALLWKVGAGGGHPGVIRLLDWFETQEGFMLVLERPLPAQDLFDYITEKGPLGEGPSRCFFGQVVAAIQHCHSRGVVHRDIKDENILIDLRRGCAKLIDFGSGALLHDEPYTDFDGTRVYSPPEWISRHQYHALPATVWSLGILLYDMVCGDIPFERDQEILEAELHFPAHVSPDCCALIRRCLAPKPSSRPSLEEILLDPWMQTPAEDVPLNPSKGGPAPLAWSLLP

PIM-1 kinase [5] = target: T1, PIM-1 kinase; test: PIM-1 kinase inhibitory activity (Promega kinase assay kit)
[6] = system: normal human lung fibroblast Wi-38 cell line; test: MTT cytotoxicity on normal cells; assay type: cell-based
Outline: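 Wi-38 fibroblasts in DMEM with 10% FBS were seeded at 5x10^3 cells/well, left 24 h to attach, then exposed to serial compound concentrations for 72 h at 37 °C, 5% CO2. MTT was added for 3 h, formazan dissolved in DMSO and absorbance read at 570 nm. IC50 and EC100 (safe dose) were estimated from the concentration series.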

NFS-60 = test: Flow cytometric annexin V/PI analysis of apoptosis, NFS-60; assay type: cell-based, human; details: IC50 of compound, 72 h, mean ± SEM
Method: as §2, §3, §4, §5, §6, §7, §8, §9

[7] = system: myeloid leukaemia cell line (NFS-60); test: MTT anticancer activity, NFS-60; assay type: cell-based; details: NFS-60, 72 h, MTT; mean ± SEM
Outline: as §1

[8] = system: HepG-2, Caco-2, NFS-60, and PC-3 cancer cell lines; assay type: cell-based, human
Method: as §2
(§10) MTT method was used for assaying cell viability 25. Twenty microliters of 5 mg/ml MTT (Sigma, USA) was added to each well and the plate was incubated at 37 °C for 3 h. Then MTT solution was removed, 100 µl DMSO was used and the absorbance of each well was measured with a microplate reader ( BMG LabTech, […]
(§11) Germany) at 570 nm. […]
as §5, §6
Anticancer effect of the above-mentioned compounds was evaluated using four human cancer cell lines. Colon cancer cells (Caco-2) were maintained in DMEM (Lonza, USA) containing 10% FBS while myeloid leukemia cell line (NFS-60), liver cancer cell line (HepG-2) and prostate cancer cell line (PC-3) were cultured in RPMI-1640 (Lonza, USA) supplemented with 10% FBS. All cancer cells (5x10^3 cells/well) were seeded in sterile 96-well plates. […]
Caco-2, PC-3 and NFS-60 cell lines. […] The apoptosis-dependent anticancer effect was determined by quantification of annexin-stained apoptotic cells using the FITC signal detector (FL1) against the phycoerythrin emission signal detector (FL2). […]

Caco-2 = test: Flow cytometric annexin V/PI analysis of apoptosis, Caco-2; assay type: cell-based; details: IC50 of compound, 72 h, mean ± SEM
Method: as §2, §10, §11, §5, §6
Anticancer effect of the above-mentioned compounds was evaluated using four human […]
cancer cell lines. […]
All cancer cells (5x10^3 cells/well) were seeded in sterile
96-well plates. After 24h, serial concentrations of the tested compounds and Dox were incubated with four cancer cell lines for 72 h at 37 °C in 5% CO2 incubator. MTT method was done as described above. The Graphpad Instat software was used for calculating the half maximal inhibitory concentration (IC50) values. […]
as §8, §9

[9] = system: caspase 3/7 in HepG-2 cells; test: Caspase 3/7 activation assay (Apo-ONE kit); assay type: cell-based, human; details: caspase 3/7, relative to untreated HepG2 cells; mean ± SEM
Source text: The percentage of caspase 3/7 activation was quantified using the Apo-ONE ® caspase 3/7 kit following the manufacturer’s instructions[27] (Supplementary Page S56).
It’s a fluorescence assay that measures caspase-3 and −7 activities. Caspase 3/7 activators are well known as apoptotic inducers.
Caspase 3/7 activation assay
The Apo-ONE ® caspase 3/7 kit following the manufacturer’s instructions was used for quantifying the percentage of caspase 3/7 activation. The fluorescence substrate present in the kit was cut by caspases to produce fluorescence signal. This signal was measured by the fluorescence omega microplate reader (BMG LabTech, Germany) at 490 nm excitation and 520 nm emission.
Data were expressed as mean ± standard error of the mean (SEM). Statistical significance was estimated by the multiple comparisons Tukey post-hoc analysis of variance (ANOVA) using the SPSS16 program. When p < 0.05, the differences were marked as statistically significant.
PIM-1 and PIM-2 kinase inhibitory activity
PIM-1 and PIM-2 kinase utilizing PIM-1 and PIM-2 Kinase Assay Kit – Promega Corporation catalog #V4032, following the manufacturer’s instructions 26 […]
Information Classification: General

IC50 ([1]; Homo sapiens, Caco-2, 72 h, MTT, mean ± SEM) [nM] | Caco-2 LE ([1]; ligand efficiency from IC50 and number of heavy atoms) | Caco-2 LLE ([1]; ligand lipophilic efficiency, potency in terms of lipophilicity) | IC50 [2] [nM] | mechanism of PIM-1 kinase inhibition (PIM-1 kinase [3]) | Vmax compared with control (PIM-1 kinase [3]; Y-intercept) | IC50 [4] [nM] | IC50 (PIM-2 kinase) [nM] | IC50 (PIM-1 kinase [5]) [nM] | IC50 [7] [nM] | SMILES | Caco-2 SI ([1]; selectivity index, Wi-38 versus Caco-2) | total percentage of the apoptotic cell population, HepG-2 (HepG-2) [%] | total percentage of the apoptotic cell population, PC-3 (PC-3) [%] | EC50 ([6]; Homo sapiens, Wi-38, 72 h, MTT, 50% cell viability, mean ± SEM) [nM] | Wi-38 EC100 ([6]; Wi-38, 72 h, MTT, safe dose, 100% cell viability, mean ± SEM) [µM] | total percentage of the apoptotic cell population, NFS-60 (NFS-60) [%] | apoptosis-dependent death / percentage of annexin-stained population cells [8] | total percentage of the apoptotic cell population, Caco-2 (Caco-2) [%] | IC50 ([6]; Homo sapiens, Wi-38, MTT, read-out: IC50 on human lung fibroblasts (Wi-38)) [nM] | Fold increase in caspase activity [9] [fold]
27 ± 2 | 0.30 | 2.73 | 42.9 ± 3 | competitive inhibitors | the same Vmax in comparison with control | 12.2 ± 0.1 | 1490 | 1100 | 53.9 ± 0.1 | COc1ccc2nc(N3CCCCC3)c(-c3cc(-c4cccc(O)c4)nc(S)c3C#N)cc2c1 [6e, 6-(3-Hydroxyphenyl)-4-(6-methoxy-2-(piperidin-1-yl)quinolin-3-yl)-2-mercaptopyridine-3-carbonitrile] | 5.741 | 69.02 ± 0.18 | 68.81 ± 0.49 | 155 ± 3 | 0.0277 ± 0.0001 | 68.385 ± 0.54 |  |  |  | 
 |  |  |  |  |  | 50.4 |  |  | 33.2 | COc1cccc2c1C(=O)c1c(O)c3c(c(O)c1C2=O)C[C@@](O)(C(=O)CO)C[C@@H]3O[C@H]1C[C@H](N)[C@H](O)[C@H](C)O1 [Dox, doxorubicin, reference compound] |  | 39.265 ± 0.81 | 34.59 ± 0.21 |  |  | 37.89 ± 0.28 | less than 39% | 36.08 ± 0.23 | 26.6 | 1.61 ± 0.088
